For data set [1], the target named is T1, Non-receptor tyrosine-protein kinase TNK1 (Homo sapiens) (UniProt Q13470).
T1 sequence (whole entry): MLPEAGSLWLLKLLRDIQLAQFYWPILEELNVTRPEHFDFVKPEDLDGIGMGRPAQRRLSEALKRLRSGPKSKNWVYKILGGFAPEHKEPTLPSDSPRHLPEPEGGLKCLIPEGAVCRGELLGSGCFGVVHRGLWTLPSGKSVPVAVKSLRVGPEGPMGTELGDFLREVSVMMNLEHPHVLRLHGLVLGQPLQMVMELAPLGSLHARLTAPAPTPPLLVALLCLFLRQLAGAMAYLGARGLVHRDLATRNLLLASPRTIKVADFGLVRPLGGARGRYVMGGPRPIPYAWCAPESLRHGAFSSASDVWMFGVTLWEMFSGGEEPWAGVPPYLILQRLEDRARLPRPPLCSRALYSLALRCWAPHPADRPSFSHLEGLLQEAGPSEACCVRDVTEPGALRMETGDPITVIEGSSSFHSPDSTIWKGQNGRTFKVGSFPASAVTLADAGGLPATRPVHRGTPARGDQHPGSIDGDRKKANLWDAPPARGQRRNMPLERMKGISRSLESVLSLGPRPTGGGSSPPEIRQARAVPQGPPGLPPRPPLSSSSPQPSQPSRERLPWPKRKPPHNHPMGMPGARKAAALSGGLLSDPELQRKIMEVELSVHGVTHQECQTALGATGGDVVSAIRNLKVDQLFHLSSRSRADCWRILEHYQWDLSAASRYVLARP
The experiment in a line: Selectivity interaction (KinomeScan (DiscoverX)) EUB0001619a TNK1. Conditions: at 1 µM.

Data set [2] has as its target Tyrosine-protein kinase Lck (Homo sapiens, UniProt P06239). The experiment in a line: Selectivity interaction (KinomeScan (DiscoverX)) EUB0001619a LCK. Conditions: at 1 µM.
In data set [3] the target is Serine/threonine-protein kinase Nek7 (Homo sapiens) (UniProt Q8TDX7). The data set can be described thus: Selectivity interaction (KinomeScan (DiscoverX)) EUB0000695a NEK7. Conditions: at 100 nM.
Sequence of Serine/threonine-protein kinase Nek7 (Homo sapiens) (Q8TDX7 whole entry, looked up): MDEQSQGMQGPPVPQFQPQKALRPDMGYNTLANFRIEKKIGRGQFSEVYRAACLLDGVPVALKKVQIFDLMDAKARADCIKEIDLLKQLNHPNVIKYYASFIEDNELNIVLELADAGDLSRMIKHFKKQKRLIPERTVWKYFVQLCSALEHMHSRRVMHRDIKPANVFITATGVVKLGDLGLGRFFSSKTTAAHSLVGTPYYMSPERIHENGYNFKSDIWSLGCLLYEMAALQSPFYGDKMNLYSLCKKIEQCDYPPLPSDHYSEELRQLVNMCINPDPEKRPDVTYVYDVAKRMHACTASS
Data set [4] addresses Mitogen-activated protein kinase 8 (Homo sapiens, UniProt P45983). The data set can be described thus: Selectivity interaction (KinomeScan (DiscoverX)) EUB0000695a MAPK8. Conditions: at 100 nM.
Data set [5] deals with Mitogen-activated protein kinase kinase kinase 10 (Homo sapiens) (UniProt Q02779). The data set can be described thus: Selectivity interaction (KinomeScan (DiscoverX)) EUB0000666a MAP3K10. Conditions: at 10 µM.
Sequence of Mitogen-activated protein kinase kinase kinase 10 (Homo sapiens) (Q02779 whole entry, looked up): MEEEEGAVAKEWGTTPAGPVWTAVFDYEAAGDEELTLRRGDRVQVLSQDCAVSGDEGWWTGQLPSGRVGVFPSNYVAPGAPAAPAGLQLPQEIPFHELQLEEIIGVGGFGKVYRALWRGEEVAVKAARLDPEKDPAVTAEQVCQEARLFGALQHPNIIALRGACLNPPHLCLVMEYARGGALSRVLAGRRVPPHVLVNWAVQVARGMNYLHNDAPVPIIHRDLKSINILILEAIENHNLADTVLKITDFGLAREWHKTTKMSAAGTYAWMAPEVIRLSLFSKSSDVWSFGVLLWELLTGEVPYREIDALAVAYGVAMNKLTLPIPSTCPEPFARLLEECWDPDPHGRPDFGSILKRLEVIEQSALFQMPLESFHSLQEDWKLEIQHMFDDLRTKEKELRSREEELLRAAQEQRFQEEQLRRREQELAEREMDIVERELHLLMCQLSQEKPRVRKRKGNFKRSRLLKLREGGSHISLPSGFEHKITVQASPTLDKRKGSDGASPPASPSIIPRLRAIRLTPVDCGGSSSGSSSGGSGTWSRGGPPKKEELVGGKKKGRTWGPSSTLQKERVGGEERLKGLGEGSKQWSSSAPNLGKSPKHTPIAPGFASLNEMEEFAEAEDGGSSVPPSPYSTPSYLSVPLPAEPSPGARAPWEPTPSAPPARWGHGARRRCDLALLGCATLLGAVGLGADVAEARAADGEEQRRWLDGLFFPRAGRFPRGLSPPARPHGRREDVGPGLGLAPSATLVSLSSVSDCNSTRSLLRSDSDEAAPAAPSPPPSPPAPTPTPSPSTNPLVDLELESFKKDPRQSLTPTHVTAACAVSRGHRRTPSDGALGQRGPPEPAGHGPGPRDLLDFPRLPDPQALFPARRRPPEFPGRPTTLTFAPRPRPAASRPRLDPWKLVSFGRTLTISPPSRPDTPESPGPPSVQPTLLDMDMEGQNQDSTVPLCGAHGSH
Data set [6] addresses Serine/threonine-protein kinase PLK1 (Homo sapiens, UniProt P53350). The data set can be described thus: Selectivity interaction (SelectScreen profiling (Invitrogen)) EUB0000607a PLK1. Conditions: at 2 µM.
For data set [7], the target named is STE20-like serine/threonine-protein kinase (Homo sapiens, UniProt Q9H2G2). The experiment in a line: Selectivity interaction (ActivX KiNativ screen (kinase selectivity in THP-1 cell lysates)) EUB0000639a SLK. As to conditions: lysate, at 0.04 µM. The class given is subcellular.
Sequence of STE20-like serine/threonine-protein kinase (Q9H2G2 whole entry, looked up): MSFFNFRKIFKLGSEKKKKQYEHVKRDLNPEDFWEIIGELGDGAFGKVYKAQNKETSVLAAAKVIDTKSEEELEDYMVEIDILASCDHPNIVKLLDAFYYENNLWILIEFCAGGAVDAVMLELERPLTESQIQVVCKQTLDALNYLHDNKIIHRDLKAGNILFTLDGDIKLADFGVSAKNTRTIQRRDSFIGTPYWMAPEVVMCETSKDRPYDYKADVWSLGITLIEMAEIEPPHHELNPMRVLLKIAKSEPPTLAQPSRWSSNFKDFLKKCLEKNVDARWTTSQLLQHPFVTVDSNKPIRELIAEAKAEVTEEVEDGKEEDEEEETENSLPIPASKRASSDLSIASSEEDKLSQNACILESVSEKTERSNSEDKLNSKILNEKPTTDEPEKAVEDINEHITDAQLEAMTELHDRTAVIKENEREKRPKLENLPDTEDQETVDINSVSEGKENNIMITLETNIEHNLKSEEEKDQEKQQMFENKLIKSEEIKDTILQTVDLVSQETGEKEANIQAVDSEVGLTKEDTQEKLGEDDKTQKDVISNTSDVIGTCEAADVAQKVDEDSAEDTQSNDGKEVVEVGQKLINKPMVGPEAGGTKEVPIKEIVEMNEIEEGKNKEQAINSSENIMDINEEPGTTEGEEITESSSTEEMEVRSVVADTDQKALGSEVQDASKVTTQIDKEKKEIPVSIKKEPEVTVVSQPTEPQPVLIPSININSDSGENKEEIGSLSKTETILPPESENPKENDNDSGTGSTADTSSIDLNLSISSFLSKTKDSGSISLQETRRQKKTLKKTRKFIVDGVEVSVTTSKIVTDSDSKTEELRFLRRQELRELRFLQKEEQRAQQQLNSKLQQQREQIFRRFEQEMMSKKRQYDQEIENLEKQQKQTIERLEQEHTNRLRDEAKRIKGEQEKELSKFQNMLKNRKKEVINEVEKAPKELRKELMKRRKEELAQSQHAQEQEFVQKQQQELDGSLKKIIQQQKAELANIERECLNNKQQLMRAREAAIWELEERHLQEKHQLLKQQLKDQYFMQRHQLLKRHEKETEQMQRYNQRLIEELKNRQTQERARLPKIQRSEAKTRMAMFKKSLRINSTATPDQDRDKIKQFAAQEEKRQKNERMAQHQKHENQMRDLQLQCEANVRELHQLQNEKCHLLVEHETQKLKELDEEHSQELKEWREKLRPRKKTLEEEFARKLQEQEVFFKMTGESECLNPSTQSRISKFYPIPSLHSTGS
Data set [8] concerns the target T2, Dual specificity mitogen-activated protein kinase kinase 7 (Homo sapiens) (UniProt O14733).
T2 sequence (whole entry): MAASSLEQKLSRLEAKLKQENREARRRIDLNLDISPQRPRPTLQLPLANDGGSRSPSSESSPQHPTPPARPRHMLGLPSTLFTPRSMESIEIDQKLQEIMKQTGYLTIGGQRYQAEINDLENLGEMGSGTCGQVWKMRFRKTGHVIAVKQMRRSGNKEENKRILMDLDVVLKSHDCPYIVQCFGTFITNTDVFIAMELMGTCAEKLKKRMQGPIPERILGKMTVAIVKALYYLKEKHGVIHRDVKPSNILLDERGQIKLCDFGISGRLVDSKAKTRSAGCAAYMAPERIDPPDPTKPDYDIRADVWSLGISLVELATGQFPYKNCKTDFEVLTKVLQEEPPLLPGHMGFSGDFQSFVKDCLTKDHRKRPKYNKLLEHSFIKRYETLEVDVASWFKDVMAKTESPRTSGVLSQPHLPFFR
The experiment in a line: Selectivity interaction (ProQinase) EUB0000171b MAP2K7.

Data set [9] deals with T3, Mitogen-activated protein kinase kinase kinase 3 (Homo sapiens) (UniProt Q99759).
T3 sequence (whole entry): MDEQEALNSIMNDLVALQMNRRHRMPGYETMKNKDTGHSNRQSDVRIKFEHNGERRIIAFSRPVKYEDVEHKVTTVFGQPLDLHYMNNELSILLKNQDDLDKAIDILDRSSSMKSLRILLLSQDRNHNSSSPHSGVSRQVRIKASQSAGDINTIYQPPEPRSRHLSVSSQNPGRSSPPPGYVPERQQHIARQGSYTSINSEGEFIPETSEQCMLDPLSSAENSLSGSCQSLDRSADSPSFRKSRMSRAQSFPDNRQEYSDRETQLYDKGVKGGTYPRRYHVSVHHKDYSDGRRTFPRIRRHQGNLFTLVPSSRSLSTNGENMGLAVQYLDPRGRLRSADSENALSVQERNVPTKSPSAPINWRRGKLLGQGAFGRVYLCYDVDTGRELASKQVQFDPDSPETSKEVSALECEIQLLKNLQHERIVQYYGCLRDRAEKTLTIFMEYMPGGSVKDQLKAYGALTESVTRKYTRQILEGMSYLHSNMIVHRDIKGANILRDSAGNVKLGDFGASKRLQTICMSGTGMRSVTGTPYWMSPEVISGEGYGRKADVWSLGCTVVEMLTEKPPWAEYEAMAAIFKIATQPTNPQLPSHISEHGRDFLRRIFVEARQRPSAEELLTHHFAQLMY
The data set can be described thus: Selectivity interaction (KinomeScan (DiscoverX)) EUB0001049a MAP3K3. Conditions: at 1 µM.

Another data set deals with PXR (NR1I2) (Homo sapiens, UniProt O75469). The experiment in a line: Selectivity interaction (Panel of kinases, GPCRs, ion channels and transporters (enzymatic assay)) EUB0000223bCl NR1I2.
Sequence of PXR (NR1I2) (O75469 whole entry): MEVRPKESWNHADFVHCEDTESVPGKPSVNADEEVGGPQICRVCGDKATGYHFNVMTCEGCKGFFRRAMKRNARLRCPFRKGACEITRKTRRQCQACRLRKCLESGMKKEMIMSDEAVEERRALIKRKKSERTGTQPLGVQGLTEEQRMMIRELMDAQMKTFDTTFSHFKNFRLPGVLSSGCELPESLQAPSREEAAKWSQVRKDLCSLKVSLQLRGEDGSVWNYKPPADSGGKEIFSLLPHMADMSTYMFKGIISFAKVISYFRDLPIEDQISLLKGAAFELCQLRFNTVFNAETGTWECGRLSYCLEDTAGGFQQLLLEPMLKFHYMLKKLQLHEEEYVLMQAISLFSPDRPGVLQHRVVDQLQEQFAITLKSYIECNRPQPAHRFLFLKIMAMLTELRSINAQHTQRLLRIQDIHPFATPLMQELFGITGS

A value given as a limit tells only on which side of the number the result lay.

Sequence of Tyrosine-protein kinase Lck (P06239 2-509 limits assumed): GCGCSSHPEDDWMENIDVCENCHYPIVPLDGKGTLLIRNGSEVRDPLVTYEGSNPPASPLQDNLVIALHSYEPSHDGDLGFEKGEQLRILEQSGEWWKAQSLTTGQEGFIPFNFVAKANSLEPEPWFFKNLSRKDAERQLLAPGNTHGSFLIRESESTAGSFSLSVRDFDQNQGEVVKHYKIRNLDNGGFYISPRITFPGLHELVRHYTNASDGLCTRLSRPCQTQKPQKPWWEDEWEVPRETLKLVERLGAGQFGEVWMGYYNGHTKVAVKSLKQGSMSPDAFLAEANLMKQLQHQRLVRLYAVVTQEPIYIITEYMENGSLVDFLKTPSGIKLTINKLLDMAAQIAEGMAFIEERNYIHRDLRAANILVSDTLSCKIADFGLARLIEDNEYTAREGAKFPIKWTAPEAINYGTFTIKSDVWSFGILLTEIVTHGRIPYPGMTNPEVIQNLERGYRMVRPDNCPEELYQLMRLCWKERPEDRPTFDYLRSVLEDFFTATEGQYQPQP
Sequence of Serine/threonine-protein kinase PLK1 (P53350 whole entry): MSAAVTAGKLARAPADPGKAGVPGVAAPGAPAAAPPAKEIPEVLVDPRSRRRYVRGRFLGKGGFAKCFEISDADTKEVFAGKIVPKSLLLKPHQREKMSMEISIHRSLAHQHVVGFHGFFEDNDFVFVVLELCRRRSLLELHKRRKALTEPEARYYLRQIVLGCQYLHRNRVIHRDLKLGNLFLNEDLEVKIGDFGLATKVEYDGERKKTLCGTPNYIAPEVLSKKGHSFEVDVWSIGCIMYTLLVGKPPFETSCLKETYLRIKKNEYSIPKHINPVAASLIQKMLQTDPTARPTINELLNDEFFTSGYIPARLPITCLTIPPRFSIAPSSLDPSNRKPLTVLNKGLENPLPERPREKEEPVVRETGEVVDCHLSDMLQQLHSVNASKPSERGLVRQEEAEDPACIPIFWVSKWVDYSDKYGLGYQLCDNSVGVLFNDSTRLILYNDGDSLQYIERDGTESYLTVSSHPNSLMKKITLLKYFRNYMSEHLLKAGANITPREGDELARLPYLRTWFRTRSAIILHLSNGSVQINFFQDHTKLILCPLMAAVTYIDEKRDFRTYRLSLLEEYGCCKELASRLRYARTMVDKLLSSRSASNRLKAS
Sequence of Mitogen-activated protein kinase 8 (P45983 whole entry): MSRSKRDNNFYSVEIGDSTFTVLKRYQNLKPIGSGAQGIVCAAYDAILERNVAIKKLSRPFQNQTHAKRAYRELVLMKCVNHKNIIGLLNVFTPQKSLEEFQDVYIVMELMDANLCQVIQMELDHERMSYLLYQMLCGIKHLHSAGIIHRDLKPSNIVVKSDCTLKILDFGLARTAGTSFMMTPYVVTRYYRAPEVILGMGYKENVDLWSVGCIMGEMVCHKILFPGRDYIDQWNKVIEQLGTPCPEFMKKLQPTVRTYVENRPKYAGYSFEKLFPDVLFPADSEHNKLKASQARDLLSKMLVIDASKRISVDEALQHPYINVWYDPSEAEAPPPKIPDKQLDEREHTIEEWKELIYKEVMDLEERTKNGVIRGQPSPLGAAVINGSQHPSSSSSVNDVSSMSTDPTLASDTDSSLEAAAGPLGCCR

For `N#Cc1cccc(-c2c[nH]c3ncnc(N4CCOCC4)c23)c1`, the results for the % of control in data set [1] and in data set [2] were 32% and 95%, respectively.
Regarding `Cc1cc(F)c(C(=O)Nc2cccc(-c3nncn3C(C)C)n2)cc1-n1cnc(C2CC2)c1`, the % of control amounted to 100% in [3] and 72% in data set [4].
In the case of `O=C(NOC[C@H](O)CO)c1ccc(F)c(F)c1Nc1ccc(I)cc1F`, the % of control in [5] is 100%.
For the compound `CNC(=O)Nc1ccc(-c2nc(N3CC4CCC(C3)O4)c3cnn(C4CCC5(CC4)OCCO5)c3n2)cc1`, in data set [6], the % of inhibition was -4%.
For the compound `CC[C@@H]1[C@H](F)C(=O)N[C@@H]1COc1nccc2cc(C(N)=O)c(OC)cc12` [ZIMLOVISERTIB], in [7], the % of inhibition is -0.4%.
Turning to `C=CC(=O)Nc1cccc(C(=O)Nc2ccc(Nc3cc(-c4[nH]c(SC)nc4C)ccn3)cc2)c1`, the % of control was found to be 45% in data set [8] (at 1 µM) and 39% in data set [8] (at 5 µM).
In the case of `COc1cc(Nc2nc(C)cc(-c3cnn4nc(OC)ccc34)n2)cc(C(F)(F)F)c1`, the % of control in data set [9] is 72%.
For the compound `COc1cc(C(=O)N2CC[C@@H](O)[C@@H](N)C2)cc2nc(-c3cc4ccccc4n3CC3CC3)n(C)c12`, at PXR (NR1I2), the XC50 is above 50.1 µM.

The values are drawn from ChEMBL document CHEMBL5465560, “Selectivity Literature for EUbOPEN Chemogenomic Library” (2024).
